Measurements from paper PMC6155273, “Antiprotozoal Activity of Triazole Derivatives of Dehydroabietic Acid and Oleanolic Acid” (Molecules : A Journal of Synthetic Chemistry and Natural …, 2017).
In brackets after ≈: the same amount, converted by molar mass. Where two headings read alike, the source gives them in different places.

Columns and labels:
[1] = Cytotoxicity on NCTC-Clone 929 fibroblasts (resazurin); assay type: cell-based; details: mouse
Experimental: The cell line used was NCTC-Clone 929, which was grown in Minimal Essential Medium (Sigma) supplemented with 10% heat-inactivated FBS, penicillin G (100 U/mL), and streptomycin (100 µg/mL). Cell cultures were maintained at 37 °C in a humidified 5% CO2 atmosphere. The procedure for cell viability measurement was evaluated with resazurin by a colorimetric method. The cells were plated in 96-microtiter plates at 3 × 10^4 cells per well in a 100 µL growth medium. The cells were grown overnight at 37 °C, 5% CO2. Thereafter, the medium was removed and the compounds were added in a 200 µL medium for 24 h. After incubation, 20 µL of a 2 mM resazurin solution was added to each well. The plates were incubated for 3 h to allow optimal oxidation-reduction. The reduction of resazurin was determined by dual wavelength absorbance measurement at 490 and 595 nm. Background was subtracted. Each concentration was assayed three times. Medium and drug controls were used in each test as blanks.

[2] = test system: L. infantum promastigotes; assay: Leishmanicidal activity on L. infantum promastigotes (resazurin); assay type: cell-based, Leishmania infantum; details: 48 h; for IC50: Leishmania infantum, read-out: Leishmanicidal Activity on Promastigotes, L. infantum, IC50
Experimental: (§1) Culture of L. braziliensis (MHOM/BR/75/M2904), and L. infantum (MHOM/FR/91/LEM2259V) was obtained from the Facultad de Farmacia (Universidad Complutense de, Madrid, Spain). The maintenance of the strains, the form of cultivation, and the isolation of shape promastigota were performed following the procedures described by Roldos et al.. The promastigotes were grown at 22 °C in Schneider’s Drosophila medium supplemented with 20% FBS. The assay was performed using a modification of a previous method. Promastigotes (2 × 10^6 parasites/well) were cultured in 96-well plastic plates. Compounds were dissolved in dimethylsulfoxide (DMSO). Different dilutions of the compounds with a final volume up to 200 µL were added. After 48 h at 26 °C, 20 µL of a 2 mM resazurin solution was added, and the oxidation-reduction was quantified at 570 and 600 nm. The solution of resazurin was prepared at 2.5 mM in phosphate buffered solution (PBS), pH 7.4, and filtered through 0.22 µm prior to use. All tests were carried out in triplicate. Resazurin sodium salt was obtained from Sigma-Aldrich (St. Louis, MO, USA) and stored at 4 °C protected from light. The efficacy of each compound was estimated by calculating the IC50 values.

T. cruzi epimastigotes = assay: Antiepimastigote activity, T. cruzi CL-B5 lacZ (CPRG); assay type: cell-based, Trypanosoma cruzi; details: clone CL-B5, 72 h; for IC50: Trypanosoma cruzi
Experimental: For in vitro studies of T. cruzi, the clone CL-B5 was used (donated by Faculty of Pharmacy, Complutense University, Madrid, Spain). Parasites were stably transfected with the Escherichia coli β-galactosidase gene (lacZ). Epimastigotes were grown at 28 °C in liver infusion tryptose broth (Difco, Detroit, MI, USA) with 10% fetal bovine serum (FBS) (Gibco, Carlsbad, CA, USA), penicillin (Ern S.A., Barcelona, Spain), and streptomycin (Reig Jofré S.A., Barcelona, Spain), as described previously, and harvested during the exponential growth phase. Briefly, the screening assay was performed in 96-well microplates (Sarstedt, Inc., Newton, NC, USA) with cultures that had not reached the stationary phase. Epimastigotes were seeded at 2 × 10^5 parasites/mL in 200 µL growth media. The plates were then incubated with the respective compounds at 28 °C for 72 h; afterwards, 50 µL of chlorophenol red-β-D-galactopyranoside (CPRG) solution was added, resulting in a final concentration of 200 µM. The plates were incubated at 37 °C for an additional 4 h and then read at 595 nm. Each concentration was tested in triplicate. The efficacy of each compound was estimated by calculating the IC50 values. These values were calculated by the sigmoidal dose–response curve adjustment using the statistical software program Graph-Pad Prims 3.0 (GraphPhad, San Diego, CA, USA). Benznidazole was used as the reference drug.

[3] = test system: L. braziliensis promastigotes; assay: Leishmanicidal activity on L. braziliensis promastigotes (resazurin); assay type: cell-based, Leishmania braziliensis; details: 48 h; for IC50: Leishmania braziliensis, read-out: Leishmanicidal Activity on Promastigotes, L. braziliensis, IC50
Experimental: as §1

| SMILES | IC50 at 24 h [1] [µg/mL] | IC50 [2] [µg/mL] | IC50 (T. cruzi epimastigotes) [µg/mL] | IC50 [3] [µg/mL] | IC50 ([2]; promastigotes) [µg/mL] | IC50 ([3]; promastigotes) [µg/mL] | Leishmanicidal Activity on Promastigotes, L. infantum, IC50 ([2]; promastigotes) [µg/mL] | Antiepimastigote Activity of T. cruzi, IC50 (T. cruzi epimastigotes) [µg/mL] | Leishmanicidal Activity on Promastigotes, L. braziliensis, IC50 ([3]; promastigotes) [µg/mL] |
| --- | --- | --- | --- | --- | --- | --- | --- | --- | --- |
| CC(C)c1ccc2c(c1)CCC1[C@](C)(C(=O)OCCc3cn(-c4ccccc4)nn3)CCC[C@]21C (stereo partly shown) [Compound 2] | > 256 | > 256 | > 256 | > 256 | – | – | – | – | – |
| COc1ccc(-n2cc(CCCCC(=O)OC[C@]3(C)CCC[C@]4(C)c5ccc(C(C)C)cc5CCC34)nn2)cc1 (stereo partly shown) [Compound 12] | > 256 | > 256 | > 256 | > 256 | – | – | – | – | – |
| COC(=O)[C@]12CCC(C)(C)C[C@H]1C1=CCC3[C@@]4(C)CC[C@H](OC(=O)CCCc5cn(S(=O)(=O)c6ccc(C)cc6)nn5)C(C)(C)C4CC[C@@]3(C)[C@]1(C)CC2 (stereo partly shown) [Compound 32] | – | > 256 | > 256 | > 256 | – | – | – | – | – |
| CC(C)c1ccc2c(c1)CC[C@H]1[C@](C)(C(=O)O)CCC[C@]21C [DHA, Dehydroabietic acid] | – | – | 212 (≈ 706 µM) | – | 72 (≈ 240 µM) | 44 (≈ 146 µM) | – | – | – |
| CC1(C)CC[C@]2(C(=O)O)CC[C@]3(C)C(=CCC4[C@@]5(C)CC[C@H](OC(=O)CCc6cn(CSc7ccccc7)nn6)C(C)(C)C5CC[C@]43C)[C@@H]2C1 (stereo partly shown) [Compound 29] | > 256 | > 256 | > 256 | > 256 | – | – | – | – | – |
| COC(=O)[C@]12CCC(C)(C)C[C@H]1C1=CCC3[C@@]4(C)CC[C@H](OC(=O)CCc5cn(-c6ccc(OC)cc6)nn5)C(C)(C)C4CC[C@@]3(C)[C@]1(C)CC2 (stereo partly shown) [Compound 24] | > 256 | > 256 | > 256 | > 256 | – | – | – | – | – |
| C#CCCCC(=O)O[C@H]1CC[C@@]2(C)C(CC[C@]3(C)C2CC=C2[C@@H]4CC(C)(C)CC[C@]4(C(=O)O)CC[C@]23C)C1(C)C (stereo partly shown) [Compound 19] | > 256 | – | > 256 | – | 155 (≈ 281 µM) | 109 (≈ 198 µM) | – | – | – |
| CC1(C)CC[C@]2(C(=O)O)CC[C@]3(C)C(=CCC4[C@@]5(C)CC[C@H](OC(=O)CCc6cn(Cc7ccc(Cl)cc7)nn6)C(C)(C)C5CC[C@]43C)[C@@H]2C1 (stereo partly shown) [Compound 25] | > 256 | > 256 | > 256 | > 256 | – | – | – | – | – |
| C#CCCC(=O)O[C@H]1CC[C@@]2(C)C(CC[C@]3(C)C2CC=C2[C@@H]4CC(C)(C)CC[C@]4(C(=O)O)CC[C@]23C)C1(C)C (stereo partly shown) [Compound 17] | 196 (≈ 365 µM) | – | 252 (≈ 469 µM) | – | > 256 | > 256 | – | – | – |
| CC(C)c1ccc2c(c1)CC[C@H]1[C@](C)(CO)CCC[C@]21C [Dehydroabietinol, dehydroabietinol, reference compound] | – | – | – | – | – | – | 40 | 66 | 63 |
| CC1(C)CC[C@]2(C(=O)O)CC[C@]3(C)C(=CCC4[C@@]5(C)CC[C@H](OC(=O)CCCc6cn(CSc7ccccc7)nn6)C(C)(C)C5CC[C@]43C)[C@@H]2C1 (stereo partly shown) [Compound 33] | – | > 256 | > 256 | > 256 | – | – | – | – | – |
| Cc1ccc(S(=O)(=O)n2cc(CCCCC(=O)OC[C@]3(C)CCC[C@]4(C)c5ccc(C(C)C)cc5CCC34)nn2)cc1 (stereo partly shown) [Compound 16] | 129 (≈ 218 µM) | – | 199 (≈ 336 µM) | – | 73 (≈ 123 µM) | 71 (≈ 120 µM) | – | – | – |
| CC(C)c1ccc2c(c1)CCC1[C@](C)(COC(=O)CCc3cn(Cc4cccc(Cl)c4)nn3)CCC[C@]21C (stereo partly shown) [Compound 13] | > 256 | > 256 | > 256 | – | – | 242 (≈ 453 µM) | – | – | – |
| CC(C)c1ccc2c(c1)CCC1[C@](C)(COC(=O)CCc3cn(CSc4ccccc4)nn3)CCC[C@]21C (stereo partly shown) [Compound 9] | > 256 | > 256 | > 256 | > 256 | – | – | – | – | – |
